Source: ChEMBL document CHEMBL5634134, “Design, synthesis, and biological evaluation of novel 4,4'-bipyridine derivatives acting as CDK9-Cyclin T1 protein-protein interaction inhibitors against triple-negative breast cancer” (Eur J Med Chem, 2023)
Active and inactive are the calls of the source. No cut-off for these calls is given here.

What was measured:
HeLa = assay: cells; conditions: Homo sapiens, 72 h
A549 = assay: cells; conditions: Homo sapiens, A549, 72 h
[1] = Cytotoxicity against human L02 cells assessed as inhibition of cell growth incubated for 72 hrs by MTT assay; type: toxicity, cell-based
MDA-MB-231 [2] = assay: cells; conditions: Homo sapiens, MDA-MB-231, 72 h
MDA-MB-231 [3] = assay: Inhibition of RNA Polymerase II CTD phosphorylation at ser2 residue in human MDA-MB-231 cells at 1 uM incubated for 24 hrs by Western blotting analysis; type: cell-based
MDA-MB-231 [4] = assay: Antiproliferative activity against human MDA-MB-231 cells assessed as inhibition of cell growth incubated for 48 hrs by MTT assay; type: functional, cell-based; conditions: MDA-MB-231, 48 h
BT-549 [5] = assay: Antiproliferative activity against human BT-549 cells assessed as inhibition of cell growth by MTT assay; type: functional, cell-based
T47D = assay: Antiproliferative activity against human T47D cells assessed as inhibition of cell growth by MTT assay; type: functional, cell-based
[6] = Cytotoxicity against HEK293T cells assessed as inhibition of cell growth by MTT assay; type: toxicity, cell-based, HEK-293T; conditions: human
MDA-MB-468 = assay: Antiproliferative activity against human MDA-MB-468 cells assessed as inhibition of cell growth by MTT assay; type: functional, cell-based
[7] = Cytotoxicity against human MCF-10A cells assessed as inhibition of cell growth by MTT assay; type: toxicity, cell-based
MDA-MB-231 [8] = assay: Antiproliferative activity against human MDA-MB-231 cells assessed as inhibition of cell growth by MTT assay; type: functional, cell-based
[9] = Cytotoxicity against human L02 cells assessed as inhibition of cell growth by MTT assay; type: toxicity, cell-based
[10] = target: CDK9/cyclin T1 (Homo sapiens) (UniProt O60563+P50750); assay: Inhibition of CDK9/Cyclin T1 protein-protein interaction in human MDA-MB-231 cells at 3 uM incubated for 8 hrs by co-immunoprecipitation assay; type: cell-based
BT-549 [11] = assay: cells; conditions: Homo sapiens, BT-549, 72 h
MDA-MB-231 [12] = assay: Induction of apoptosis in human MDA-MB-231 cells assessed as late apoptotic cells at 1000 nM incubated for 72 hrs by Annexin V-FITC/PI staining based flow cytometry analysis (reference value: 4.04 %); type: functional
HepG2 = assay: cells; conditions: Homo sapiens, HepG2, 72 h
Hs-578T = assay: cells; conditions: Homo sapiens, 72 h
[13] = Selectivity index, ratio of IC50 for the cytotoxicity against human LO2 cells to IC50 for antiproliferative activity against human MDA-MB-231 cells; type: toxicity, cell-based; conditions: LO2 cells versus MDA-MB-231 cells, read-out: Ratio IC50
MDA-MB-231 [14] = assay: Induction of apoptosis in human MDA-MB-231 cells assessed as viable cells at 1000 nM incubated for 72 hrs by Annexin V-FITC/PI staining based flow cytometry analysis (reference value: 94.81 %); type: functional; conditions: read-out: Activity
[15] = Cytotoxicity against human MRC5 cells assessed as inhibition of cell growth incubated for 72 hrs by MTT assay; type: toxicity, cell-based
[16] = Cytotoxicity against human MCF-10A cells assessed as inhibition of cell growth incubated for 72 hrs by MTT assay; type: toxicity, cell-based
CDK9/cyclin T1 = CDK9/cyclin T1 (Homo sapiens, UniProt P50750); assay: Inhibition of human CDK9/Cyclin T1 in presence of ATP by radiometric kinase assay; type: protein-complex assay
Sequence of CDK9/cyclin T1 (O60563 whole entry): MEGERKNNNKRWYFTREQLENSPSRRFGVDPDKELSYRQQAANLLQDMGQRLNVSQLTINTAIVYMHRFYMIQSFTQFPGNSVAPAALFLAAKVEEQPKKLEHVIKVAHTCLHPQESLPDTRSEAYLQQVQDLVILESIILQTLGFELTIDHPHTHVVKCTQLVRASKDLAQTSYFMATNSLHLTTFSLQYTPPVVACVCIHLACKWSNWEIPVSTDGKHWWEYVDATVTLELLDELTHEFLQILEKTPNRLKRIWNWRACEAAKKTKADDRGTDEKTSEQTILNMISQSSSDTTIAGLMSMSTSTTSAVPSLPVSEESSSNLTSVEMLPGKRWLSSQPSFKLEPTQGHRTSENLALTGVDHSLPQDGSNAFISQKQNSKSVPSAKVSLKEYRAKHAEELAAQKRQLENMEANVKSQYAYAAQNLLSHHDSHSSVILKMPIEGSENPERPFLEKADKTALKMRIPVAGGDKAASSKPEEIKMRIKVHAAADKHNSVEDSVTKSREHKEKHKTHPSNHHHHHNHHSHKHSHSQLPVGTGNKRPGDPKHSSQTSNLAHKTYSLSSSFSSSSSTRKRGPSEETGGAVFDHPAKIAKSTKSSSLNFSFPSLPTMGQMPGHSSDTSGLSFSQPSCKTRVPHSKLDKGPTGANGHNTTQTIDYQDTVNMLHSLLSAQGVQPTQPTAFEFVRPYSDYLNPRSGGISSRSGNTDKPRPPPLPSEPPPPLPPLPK
Sequence of CDK9/cyclin T1 (P50750 whole entry): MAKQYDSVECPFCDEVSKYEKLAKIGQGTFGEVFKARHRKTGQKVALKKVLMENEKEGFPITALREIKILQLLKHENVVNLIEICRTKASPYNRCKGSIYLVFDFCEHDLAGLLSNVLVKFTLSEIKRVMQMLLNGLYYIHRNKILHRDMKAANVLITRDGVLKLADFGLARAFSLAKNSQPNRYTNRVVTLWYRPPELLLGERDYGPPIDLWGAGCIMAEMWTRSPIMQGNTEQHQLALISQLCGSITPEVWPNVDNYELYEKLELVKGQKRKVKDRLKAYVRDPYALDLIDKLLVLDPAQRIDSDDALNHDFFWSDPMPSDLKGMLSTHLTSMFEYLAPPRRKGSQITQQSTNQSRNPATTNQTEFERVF

[17] = Cytotoxicity against HK-2 cells assessed as inhibition of cell growth incubated for 72 hrs by MTT assay; type: toxicity, cell-based; conditions: human
4T1 = assay: cells; conditions: Mus musculus, 4T1, 72 h
MDA-MB-231 [18] = assay: Induction of apoptosis in human MDA-MB-231 cells assessed as necrotic cells at 1000 nM incubated for 72 hrs by Annexin V-FITC/PI staining based flow cytometry analysis (reference value: 0.49 %); type: functional
MDA-MB-231 [19] = assay: Induction of apoptosis in human MDA-MB-231 cells assessed as early apoptotic cells at 1000 nM incubated for 72 hrs by Annexin V-FITC/PI staining based flow cytometry analysis (reference value: 0.66 %); type: functional
MDA-MB-231 [20] = assay: cells; conditions: Homo sapiens
MDA-MB-436 = assay: cells; conditions: Homo sapiens
BT-549 [21] = assay: cells; conditions: Homo sapiens
MDA-MB-231 [22] = assay: Antiproliferative activity against human MDA-MB-231 cells assessed as decrease in sphere size by measuring sphere diameter at 10 uM incubated for 10 days by confocal laser scanning microscopy (reference value: 508.27 micrometer); type: functional; conditions: time 10 day
MDA-MB-231 [23] = assay: Inhibition of colony formation in human MDA-MB-231 cells at 2 uM incubated for 10 days by crystal violet staining based analysis; type: functional, cell-based; conditions: time 10.0 day

SMILES | IC50 (HeLa) [nM] | IC50 (A549) [nM] | IC50 at 72 h [1] [nM] | IC50 (MDA-MB-231 [2]) [nM] | other results
Cc1ccc(C(=O)Nc2cc(-c3ccnc(N4CCCC(O)C4)c3)ccn2)cc1 (stereo unspecified) | 1990 | > 10000 | 591 | 726 | –
COc1ccc(CCC(=O)Nc2cc(-c3ccnc(N4CCC(O)CC4)c3)ccn2)cc1 | > 10000 | > 10000 | > 10000 | > 10000 | inhibition (MDA-MB-231 [3]): Active
COc1cc(C(=O)Nc2cc(-c3ccnc(N4CCC(O)CC4)c3)ccn2)cc(OC)c1OC | 5730 | 5680 | > 10000 | 1740 | inhibition (MDA-MB-231 [3]): Active
CC1CCN(c2cc(-c3ccnc(NC(=O)c4ccc(F)cc4)c3)ccn2)CC1 | > 10000 | > 10000 | > 10000 | > 10000 | –
O=c1[nH]cc(F)c(=O)[nH]1 [FLUOROURACIL] | – | – | – | – | IC50 (MDA-MB-231 [4]): 13900 nM
COc1ccc(CNc2cc(-c3ccnc(N4CCC(O)CC4)c3)ccn2)cc1 | > 10000 | > 10000 | > 10000 | 3220 | inhibition (MDA-MB-231 [3]): Active
Cc1sc2c(c1C)C(c1ccc(Cl)cc1)=N[C@@H](CC(=O)OC(C)(C)C)c1nnc(C)n1-2 | – | – | – | – | IC50 (MDA-MB-231 [4]): 3150 nM
CC(=O)O[C@H]1C(=O)[C@@]2(C)[C@H]([C@H](OC(=O)c3ccccc3)[C@]3(O)C[C@H](OC(=O)[C@H](O)[C@@H](NC(=O)c4ccccc4)c4ccccc4)C(C)=C1C3(C)C)[C@]1(OC(C)=O)CO[C@@H]1C[C@@H]2O [PACLITAXEL] | – | – | – | – | IC50 (MDA-MB-231 [4]): < 5 nM
CCOc1cc(/C=N/O)ccc1OCC#CC1c2c(cc3c(c2OC)OCO3)CCN1C (stereo unspecified) | – | – | – | – | IC50 (BT-549 [5]): 12600 nM; IC50 (T47D): 52500 nM; IC50 [6]: > 100000 nM; IC50 (MDA-MB-468): 7400 nM; IC50 [7]: 35500 nM; IC50 (MDA-MB-231 [8]): 6200 nM; IC50 [9]: > 100000 nM
Cc1ccc(C(=O)Nc2cc(-c3ccnc(N4CCC(O)CC4)c3)ccn2)cc1 | 3280 | 2400 | 875 | 261 | inhibition (MDA-MB-231 [3]): Active
O=C(Nc1cc(-c2ccnc(N3CCC(O)CC3)c2)ccn1)c1cc(Cl)cc(Cl)c1 | > 10000 | > 10000 | > 10000 | > 10000 | –
CC1CCN(c2cc(-c3ccnc(NC(=O)c4ccc(C(F)(F)F)cc4)c3)ccn2)CC1 | 7790 | > 10000 | > 10000 | 3180 | –
N[C@H]1CC[C@H](Nc2cc(-c3cccc(NCc4cccc(F)c4)n3)c(Cl)cn2)CC1 | 150 | 1620 | 278 | 80 | inhibition [10]: inactive; IC50 (BT-549 [11]): 53 nM; Activity (MDA-MB-231 [12]): 42.9%; IC50 (HepG2): 473 nM; IC50 (Hs-578T): 74 nM; selectivity ratio [13]: 3; viability at 1 µM (MDA-MB-231 [14]): 19.3%; IC50 at 72 h [15]: 197 nM; IC50 at 72 h [16]: 108 nM; IC50 (CDK9/cyclin T1): < 0.4 nM; IC50 at 72 h [17]: 187 nM; IC50 (4T1): 116 nM; Activity (MDA-MB-231 [18]): 0.2%; Activity (MDA-MB-231 [19]): 37.6%
CCN1CCN(c2cc(-c3ccnc(NC(=O)c4ccc(OC)cc4)c3)ccn2)CC1 | 3260 | 1580 | 6890 | 1000 | –
Cc1cccc(C(=O)Nc2cc(-c3ccnc(N4CCC(C)CC4)c3)ccn2)c1 | > 10000 | > 10000 | 6370 | 3140 | –
CCOc1ccc(C(=O)Nc2cc(-c3ccnc(N4CCC(O)CC4)c3)ccn2)cc1 | 1360 | 5340 | 132 | 103 | inhibition (MDA-MB-231 [3]): Active; selectivity ratio [13]: 1
COc1ccc(C(=O)Nc2cc(-c3ccnc(N4CCC(N)CC4)c3)ccn2)cc1 | > 10000 | 2370 | 1380 | 1160 | –

SMILES | IC50 (HeLa) [nM] | IC50 (A549) [nM] | IC50 at 72 h [1] [nM] | IC50 (MDA-MB-231 [2]) [nM] | other results
COc1cc(F)ccc1-c1ncnc(Nc2cccc(C[S@](C)(=N)=O)c2)n1 [ATUVECICLIB] | – | – | – | – | IC50 (MDA-MB-231 [20]): 1320 nM; IC50 (MDA-MB-436): 630 nM; IC50 (BT-549 [21]): 2010 nM
COc1ccc(C(=O)Nc2cc(-c3ccnc(N4CCC(NC(=O)OC(C)(C)C)CC4)c3)ccn2)cc1 | > 10000 | 3290 | 538 | 199 | –
COc1cccc(C(=O)Nc2cc(-c3ccnc(N4CCC(O)CC4)c3)ccn2)c1 | > 10000 | 2880 | 2980 | 3940 | inhibition (MDA-MB-231 [3]): Active
CC1CCCN(c2cc(-c3ccnc(NC(=O)c4ccc(F)cc4)c3)ccn2)C1 (stereo unspecified) | 474 | 4320 | 1230 | 273 | –
COc1ccc(C(=O)Nc2cc(-c3ccnc(N4CCN(C)CC4)c3)ccn2)cc1 | > 10000 | 4100 | > 10000 | 485 | –
COc1ccc(CC(=O)Nc2cc(-c3ccnc(N4CCC(O)CC4)c3)ccn2)cc1 | > 10000 | > 10000 | > 10000 | 7860 | inhibition (MDA-MB-231 [3]): Active
COc1cccc2c1C(=O)c1c(O)c3c(c(O)c1C2=O)C[C@@](O)(C(=O)CO)C[C@@H]3O[C@H]1C[C@H](N)[C@H](O)[C@H](C)O1 [DOXORUBICIN] | – | – | – | – | IC50 (MDA-MB-231 [4]): 153 nM
Cc1ccccc1C(=O)Nc1cc(-c2ccnc(N3CCC(O)CC3)c2)ccn1 | > 10000 | > 10000 | > 10000 | > 10000 | –
COc1ccc(C(=O)Nc2cc(-c3ccnc(N4CCC(C)CC4)c3)ccn2)cc1 | 1590 | 2710 | 4170 | 184 | –
O=C(Nc1cc(-c2ccnc(N3CCC(O)CC3)c2)ccn1)c1ccccc1Cl | > 10000 | > 10000 | > 10000 | > 10000 | –
O=C(Nc1cc(-c2ccnc(N3CCCC(CO)C3)c2)c(Cl)cn1)c1ccc(F)cc1 (stereo unspecified) | 276 | 1850 | > 10000 | 585 | –
O=P1(N(CCCl)CCCl)NCCCO1 (stereo unspecified) [CYCLOPHOSPHAMIDE ANHYDROUS] | – | – | – | – | IC50 (MDA-MB-231 [4]): > 50000 nM
Cc1ccc(C(=O)Nc2cc(-c3ccnc(N4CCC(C)CC4)c3)ccn2)cc1 | 3850 | > 10000 | > 10000 | 1280 | –
COc1ccc(C(=O)Nc2cc(-c3ccnc(N(C)CCO)c3)ccn2)cc1 | 527 | > 10000 | 1120 | 367 | –
O=C(c1cc(Cc2n[nH]c(=O)c3ccccc23)ccc1F)N1CCN(C(=O)C2CC2)CC1 [OLAPARIB] | – | – | – | – | Activity (MDA-MB-231 [22]): 472.83 um; inhibition (MDA-MB-231 [23]): inactive; IC50 (MDA-MB-231 [4]): > 50000 nM
COc1ccc(C(=O)Nc2cc(-c3ccnc(N4CCCC(CO)C4)c3)ccn2)cc1 (stereo unspecified) | 272 | 2440 | 2600 | 76 | selectivity ratio [13]: 34
O=C(Nc1cc(-c2ccnc(N3CCC(O)CC3)c2)ccn1)c1ccc(C(F)(F)F)cc1 | 257 | 1650 | 1960 | 112 | inhibition (MDA-MB-231 [3]): Active
